Measurements from patent publication US20220064167A1, “IMIDAZO-PYRAZOLE CARBOXAMIDE DERIVATIVES AS ANTICANCER AGENTS AND THE SYNTHESIS THEREOF” (AVIDIN KFT., priority 2018, published 2022).

Assays:
[1] = test system: human breast adenocarcinoma cell line, MCF-7; assay: resazurin viability assay, 72 h (Table 1); type: cell-based; settings: MCF7, 72h incubation, 156 nM-100 μM
Source text: (§1) In our experiments three different cell lines were used. Cells were purchased from the American Type Culture Collection (ATCC, Manassas, Va., USA). The human breast adenocarcinoma cell line, MCF-7 cells were maintained in Dulbecco's Modified Eagle Medium/Nutrient Mixture F-12 (DMEM/F12) 10% fetal calf serum (FCS, Gibco) and mouse mammary carcinoma 4T1 and human promyelocytic leukemia, HL-60 cells were maintained in Roswell Park Memorial Institute 1640 medium (RPMI-1640) 10% FCS. Media were supplemented with 2 mM GlutaMAX, and 100 U/mL penicillin, 100 μg/mL streptomycin (Life Technologies, Carlsbad, Calif., USA). Cell cultures were maintained at 37° C. in a humidified incubator in an atmosphere of 5% CO2 (Sanyo, Japan).
(§2) For viability assays cells were seeded in 96 well plates (MCF7 and 4T1: 6000, HL60: 120.000 cells/well) and incubated overnight. Compounds were dissolved in dimethyl sulfoxide (DMSO). Cells were treated with an increasing concentration of compounds having the general formula (I.) (156 nM-100 μM). Cell viability was determined after 72h incubation. Resazurin reagent (Sigma-Aldrich) was dissolved in PBS (pH 7.4) at 0.15 mg/ml concentration, sterile filtered (0.22 μm, Merck Millipore) and aliquoted at −20° C. Resazurin reagent (Sigma-Aldrich) was added at a final concentration of 25 μg/ml. After 2 hours incubation at 37° C. 5% CO2 fluorescence (530 nm excitation/580 nm emission) was recorded on a multimode microplate reader (Cytofluor4000, PerSeptive Biosytems). Viability was calculated with relation to untreated control cells and blank wells containing media without cells. IC50 values (50% inhibiting concentration) were calculated by GraphPad Prism® 5 (La Jolla, Calif., USA).

[2] = test system: human promyelocytic leukemia, HL-60 cells; assay: resazurin viability assay, 72 h (Table 1); type: cell-based; settings: 72h incubation, 156 nM-100 μM
Source text: as §1, §2

[3] = test system: mouse mammary carcinoma 4T1; assay: resazurin viability assay, 72 h (Table 1); type: cell-based; settings: 72h incubation, 156 nM-100 μM
Source text: as §1, §2

SMILES	melting point	IC50 [1]	IC50 [2]	IC50 [3]
Cc1nn2c(NC(C)(C)CC(C)(C)C)c(C(C)(C)C)[nH]c2c1C(=O)Nc1ccc(F)cc1 [Example 74, 2-(Tert-butyl)-N-(4-fluorophenyl)-6-methyl-3-((2,4,4-trimethylpentan-2-yl)amino)-1H-imidazo[1,2-b]pyrazole-7-carboxamide]	179 °C	–	–	–
COc1ccc(Nc2c(-c3ccccc3)[nH]c3c(C(N)=O)cnn23)cc1 [Example 5, 3-((4-Methoxyphenyl)amino)-2-phenyl-1H-imidazo[1,2-b]pyrazole-7-carboxamide]	229 to 231 °C	–	–	–
CC(C)(C)CC(C)(C)Nc1c(C(C)(C)C)[nH]c2c(C(=O)NCc3ccccc3)cnn12 [Example 33, N-Benzyl-2-(tert-butyl)-3-((2,4,4-trimethylpentan-2-yl)amino)-1H-imidazo[1,2-b]pyrazole-7-carboxamide]	118 to 119 °C	8.57 µM	6.26 µM	9.31 µM
COc1ccc(-c2[nH]c3c(C(N)=O)cnn3c2NC(C)(C)CC(C)(C)C)cc1 [Example 7, 2-(4-Methoxyphenyl)-3-((2,4,4-trimethylpentan-2-yl)amino)-1H-imidazo[1,2-b]pyrazole-7-carboxamide]	124 to 125 °C	18.6 µM	19 µM	25.2 µM
CC(C)(C)c1[nH]c2c(C(N)=O)cnn2c1NC1CCCCC1 [Example 18, 2-(Tert-butyl)-3-(cyclohexylamino)-1H-imidazo[1,2-b]pyrazole-7-carboxamide]	148 to 149 °C	4.07 µM	2.95 µM	4.24 µM
CC(C)(C)CC(C)(C)Nc1c(C(C)(C)C)[nH]c2c(C(=O)Nc3cccnc3)cnn12 [Example 36, 2-(Tert-butyl)-N-(pyridin-3-yl)-3-((2,4,4-trimethylpentan-2-yl)amino)-1H-imidazo[1,2-b]pyrazole-7-carboxamide]	186 to 187 °C	1.9 µM	0.934 µM	2.59 µM
CC(C)(C)CC(C)(C)Nc1c(C(C)(C)C)[nH]c2c(C(=O)Nc3cccc(C(F)(F)F)c3)cnn12 [Example 46, 2-(Tert-butyl)-N-(3-(trifluoromethyl)phenyl)-3-((2,4,4-trimethylpentan-2-yl)amino)-1H-imidazo[1,2-b]pyrazole-7-carboxamide]	180 °C	> 50 µM	11.4 µM	35.4 µM
CC(C)(C)Nc1c(C(C)(C)C)[nH]c2c(C(N)=O)cnn12 [Example 19, 2-(Tert-butyl)-3-(tert-butylamino)-1H-imidazo[1,2-b]pyrazole-7-carboxamide]	221 °C	27.9 µM	4.99 µM	23.9 µM
CCOC(=O)c1ccc(NC(=O)c2cnn3c(NC(C)(C)CC(C)(C)C)c(C(C)(C)C)[nH]c23)cc1 [Example 55, Ethyl 4-(2-(tert-butyl)-3-((2,4,4-trimethylpentan-2-yl)amino)-1H-imidazo[1,2-b]pyrazole-7-carbox-amido)benzoate]	127 to 128 °C	> 50 µM	8.5 µM	> 50 µM
CC(C)(C)CC(C)(C)Nc1c(C(C)(C)C)[nH]c2c(C(=O)Nc3ccc(F)cn3)cnn12 [Example 72, 2-(Tert-butyl)-N-(5-fluoropyridin-2-yl)-3-((2,4,4-trimethylpentan-2-yl)amino)-1H-imidazo[1,2-b]pyrazole-7-carboxamide]	140 °C	–	–	–
NC(=O)c1cnn2c(NC3CCCCC3)c(-c3ccccc3)[nH]c12 [Example 4, 3-(Cyclohexylamino)-2-phenyl-1H-imidazo[1,2-b]pyrazole-7-carboxamide]	240 to 241 °C	–	–	–
CC(C)(C)CC(C)(C)Nc1c(C(C)(C)C)[nH]c2c(C(=O)Nc3ccccc3)cnn12 [Example 34, 2-(Tert-butyl)-N-phenyl-3-((2,4,4-trimethylpentan-2-yl)amino)-1H-imidazo[1,2-b]pyrazole-7-carboxamide]	147 °C	18.3 µM	0.604 µM	28.5 µM
CC(C)(C)CC(C)(C)Nc1c(-c2ccccc2)[nH]c2c(C(N)=O)cnn12 [Example 2, 2-Phenyl-3-((2,4,4-trimethylpentan-2-yl)amino)-1H-imidazo[1,2-b]pyrazole-7-carbox-amide]	154 to 156 °C	–	–	–
COc1ccc(NC(=O)c2cnn3c(NC(C)(C)CC(C)(C)C)c(C(C)(C)C)[nH]c23)c(OC)c1 [Example 44, 2-(Tert-butyl)-N-(2,4-dimethoxyphenyl)-3-((2,4,4-trimethylpentan-2-yl)amino)-1H-imidazo[1,2-b]pyrazole-7-carboxamide]	127 °C	–	–	–
CC(C)(C)Nc1c(-c2ccccc2)[nH]c2c(C(N)=O)cnn12 [Example 1, 3-(Tert-butylamino)-2-phenyl-1H-imidazo[1,2-b]pyrazole-7-carboxamide]	246 to 248 °C	–	–	–
CC(C)c1ccc(NC(=O)c2cnn3c(NC(C)(C)CC(C)(C)C)c(C(C)(C)C)[nH]c23)cc1 [Example 42, 2-(Tert-butyl)-N-(4-isopropylphenyl)-3-((2,4,4-trimethylpentan-2-yl)amino)-1H-imidazo[1,2-b]pyrazole-7-carboxamide]	155 to 156 °C	–	–	–
COC(=O)CNc1c(-c2c(OC)cc(OC)cc2OC)[nH]c2c(C(N)=O)cnn12 [Example 9, Methyl 2-((7-carbamoyl-2-(2,4,6-trimethoxyphenyl)-1H-imidazo[1,2-b]pyrazol-3-yl)amino)acetate]	226 to 227 °C	–	–	–
CC(C)(C)CC(C)(C)Nc1c(-c2cccnc2)[nH]c2c(C(N)=O)cnn12 [Example 14, 2-(Pyridin-3-yl)-3-((2,4,4-trimethylpentan-2-yl)amino)-1H-imidazo[1,2-b]pyrazole-7-carboxamide]	226 to 228 °C	–	–	–
Cc1cc(C)cc(NC(=O)c2cnn3c(NC(C)(C)CC(C)(C)C)c(C(C)(C)C)[nH]c23)c1 [Example 41, 2-(Tert-butyl)-N-(3,5-dimethylphenyl)-3-((2,4,4-trimethylpentan-2-yl)amino)-1H-imidazo[1,2-b]pyrazole-7-carboxamide]	180 to 181 °C	–	–	–
CC(C)(C)CC(C)(C)Nc1c(C(C)(C)C)[nH]c2c(C(=O)Nc3ccc(F)nc3)cnn12 [Example 73, 2-(Tert-butyl)-N-(6-fluoropyridin-3-yl)-3-((2,4,4-trimethylpentan-2-yl)amino)-1H-imidazo[1,2-b]pyrazole-7-carboxamide]	177 to 178 °C	–	–	–
CCCCCCCc1[nH]c2c(C(N)=O)cnn2c1NC(C)(C)C [Example 17, 3-(Tert-butylamino)-2-heptyl-1H-imidazo[1,2-b]pyrazole-7-carboxamide]	203 to 204 °C	–	–	–
CC(C)(C)CC(C)(C)Nc1c(C(C)(C)C)[nH]c2c(C(=O)Nc3ccc(Cl)cc3)cnn12 [Example 51, 2-(Tert-butyl)-N-(4-chlorophenyl)-3-((2,4,4-trimethylpentan-2-yl)amino)-1H-imidazo[1,2-b]pyrazole-7-carboxamide]	–	29.3 µM	3.05 µM	30.7 µM
CC(C)(C)CC(C)(C)Nc1c(C(C)(C)C)[nH]c2c(C(=O)NC3CCCC3)cnn12 [Example 32, 2-(Tert-butyl)-N-cyclopentyl-3-((2,4,4-trimethylpentan-2-yl)amino)-1H-imidazo[1,2-b]pyrazole-7-carboxamide]	182 to 183 °C	–	–	–
CC(C)(C)Nc1c(-c2ccc(F)c(F)c2)[nH]c2c(C(N)=O)cnn12 [Example 13, 3-(Tert-butylamino)-2-(3,4-difluorophenyl)-1H-imidazo[1,2-b]pyrazole-7-carboxamide]	256 to 258 °C	–	–	–
CC(C)(C)CC(C)(C)Nc1c(C(C)(C)C)[nH]c2c(C(=O)Nc3ccccc3C(F)(F)F)cnn12 [Example 45, 2-(Tert-butyl)-N-(2-(trifluoromethyl)phenyl)-3-((2,4,4-trimethylpentan-2-yl)amino)-1H-imidazo[1,2-b]pyrazole-7-carboxamide]	106 °C	–	–	–
CC(C)(C)CC(C)(C)Nc1c(C(C)(C)C)[nH]c2c(C(=O)NCc3ccc(F)cc3)cnn12 [Example 71, 2-(Tert-butyl)-N-(4-fluorobenzyl)-3-((2,4,4-trimethylpentan-2-yl)amino)-1H-imidazo[1,2-b]pyrazole-7-carboxamide]	163 to 164 °C	–	–	–
COC(=O)CNc1c(-c2ccccc2)[nH]c2c(C(N)=O)cnn12 [Example 3, Methyl 2-((7-carbamoyl-2-phenyl-1H-imidazo[1,2-b]pyrazol-3-yl)amino)acetate]	209 to 210 °C	–	–	–
CC(C)(C)CC(C)(C)Nc1c(C(C)(C)C)[nH]c2c(C(=O)NC(C)(C)C)cnn12 [Example 30, N,2-Di-tert-butyl-3-((2,4,4-trimethylpentan-2-yl)amino)-1H-imidazo[1,2-b]pyrazole-7-carboxamide]	177 to 178 °C	–	–	–
